Values quoted from earlier work in patent US11844783B2, “Formulations of bendamustine” (Eagle Pharmaceuticals, Inc., priority 2010, dated 2023).

Conditions: liquid form

Cn1c(CCCC(=O)O)nc2cc(N(CCCl)CCCl)ccc21 [bendamustine, Bendamustine]
stability in water: measured in hours
